For one experiment, the system named is ACHN cells. The experiment can be described thus: Antibody mediated toxin killing clonogenic assay (saporin conjugated secondary antibody), ACHN. The conditions noted are these: EGFR mAb at 100 ng/mL with saporin secondary. The format is cell-based, human. On the procedure: (§1) A clonogenic assay as described in the art was used to determine whether primary antibodies can induce cancer cell death when used in combination with a saporin toxin conjugated secondary antibody reagent. Kohls and Lappi, Biotechniques, 28(1):162-5 (2000).
(§2) ACHN and BT549 cells were plated onto flat bottom tissue culture plates at a density of 3000 cells per well. On day 2 or when cells reached ˜25% confluency, 100 ng/well secondary mAb-toxin (goat anti-human IgG-saporin; Advanced Targeting Systems; HUM-ZAP; cat. no. IT-22) was added. A positive control anti-EGFR antibody, mAb 2.7.2, mAb 2.59.2, or an isotype control mAb was then added to each well at the desired concentration (typically 1 to 500 ng/mL). On day 5, the cells were trypsinized, transferred to a 150 mm tissue culture dish, and incubated at 37° C. Plates were examined daily. On days 10-12, all plates were Giemsa stained and colonies on the plates were counted. Plating efficiency was determined by comparing the number of cells prior to transfer to 150 mm plates to the number of colonies that eventually formed.
(§3) The percent viability in antigen positive ACHN and antigen negative BT549 cell lines are presented in FIG. 4 and FIG. 5 respectively.

A further experiment concerns BT549 cells. The experiment is described as follows: Antibody mediated toxin killing clonogenic assay (saporin conjugated secondary antibody), BT549. The format is cell-based, human. The conditions noted are these: EGFR mAb at 100 ng/mL with saporin secondary. On the procedure: as §1, §2, §3
Experiment [1] concerns IGROV1 ovarian carcinoma xenografts. The experiment is described as follows: Human ovarian carcinoma xenograft model (IGROV1) in athymic mice. The format is in vivo, athymic mice (CD-1 nu/nu females). On the procedure: An in vivo study was performed to assess the potency and therapeutic efficacy of the antibody-drug conjugate, CR014-vcMMAE, against an established human IGROV-1 ovarian xenograft in athymic mice.
Test Animals: Five- to 6-week old athymic mice (CD-1 nu/nu females), used for human tumor xenografts, were obtained from Charles Rivers Laboratories (Wilmington, Del.). Animals were housed in specific pathogen-free conditions, according to the guidelines of the Association for Assessment and Accreditation of Laboratory Animal Care International (AAALAC International). Test animals were provided pelleted food and water ad libitum and kept in a room with conditioned ventilation (HVAC), temperature (22°±2° C.), relative humidity (55%±15%), and photoperiod (12 hr). All studies were carried out with approved institutional animal care and use protocols. Contract Research Organizations. Experiments in vivo were conducted at Southern Research Institute (Birmingham, Ala.).
Human Ovarian Carcinoma Xenograft Model. The tumor inhibitory activity of the CR014-MMAE immunoconjugate was measured in an anti-tumor xenograft model using athymic mice, according to published methods (Geran R I, Greenberg N H, Macdonald M M, Schumacher A M and Abbott B J (1972) Protocols for screening chemical agents and natural products against animal tumors and other biological systems. Cancer Chemother Rep 3:1-104).
Briefly, test animals were implanted subcutaneously by trocar with small fragments of the IGROV1 carcinoma (30-60 mg) excised from athymic mouse tumor donors. […]
The IGROV1 ovarian carcinoma was derived from a person in 1985, and was obtained from the American Type Culture Collection. The effects of treatment were monitored by repetitive tumor measurements across 2 diameters with Vernier calipers; tumor size (in mg) was calculated using a standard formula, (W^2×L)/2, assuming a specific gravity of 1.0. Tumor size and body weights were assessed twice weekly. […]
(A xenograft is tissue or cells of one species grown in another, often human tumour cells in immunodeficient mice.)

Where a name gives a salt, the structure may show the parent alone.

For the compound `O=c1[nH]cc(F)c(=O)[nH]1` [5-FU, 5 Fluorouracil, reference compound], the “killing in clonogenic assay (controls)” value with ACHN cells and in the experiment on BT549 cells was “almost complete killing” in each case.

Regarding `CC[C@]1(O)C[C@@H]2CN(CCc3c([nH]c4ccccc34)[C@@](C(=O)OC)(c3cc4c(cc3OC)N(C)[C@H]3[C@@](O)(C(=O)OC)[C@H](OC(C)=O)[C@]5(CC)C=CCN6CC[C@]43[C@@H]65)C2)C1` [Vinblastine, vinblastine sulfate], the anti-tumor effect result in experiment [1] (vinblastine sulfate i.v., 1.7 mg/kg, q4d×4 (MTD)) was “very slight, but not significant, anti-tumor effect”.

With `CC(=O)O[C@H]1C(=O)[C@@]2(C)[C@H]([C@H](OC(=O)c3ccccc3)[C@]3(O)C[C@H](OC(=O)[C@H](O)[C@@H](NC(=O)c4ccccc4)c4ccccc4)C(C)=C1C3(C)C)[C@]1(OC(C)=O)CO[C@@H]1C[C@@H]2O` [Paclitaxel, paclitaxel], in experiment [1] (101 days after the commencement of treatment), the “re-growth of tumors during the observation period” value is given as “not observed”. For the same compound, in experiment [1] (paclitaxel i.v., 24 mg/kg, q2d×4 (MTD)), the anti-tumor effect entry is “significant tumor growth inhibition”.

Values taken from patent US20170267750A1, “Method of Treating Ovarian and Renal Cancer Using Antibodies Against T Cell Immunoglobulin Domain and Mucin Domain 1 (TIM-1) Antigen” (Celldex Therapeutics, Inc., priority 2005, published 2017).
